Results as given in patent US20250345392A1, “ANNEXIN A1 LIQUID PHARMACEUTICAL COMPOSITION” (ResoTher Pharma A/S, priority 2022, published 2025).
Where two headings read alike, the source gives them in different places. Ends that are not written are not given here.

Test: Clinical test in humans, three 30-min i.v. infusions 8 hours apart, plasma PK
Type: in vivo
Details: human, three 30-min i.v. infusions 8 h apart; for AUC / Cmax / Tmax / AUC(0-t) / half-life: iv; for AUC(0-t): read-out: AUC0-24; for half-life: after the last infusion
Experimental: A total of 8 subjects were included in each group. In each group, 6 subjects received the active treatment and 2 received the placebo. The active treatment was as follows in each group: • Group 9 received three 8 hours apart 30-min Peptide 1 intravenous (i.v.) infusions, wherein each i.v. infusion corresponded to a dose of 50 μg/kg. • Group 10 received three 8 hours apart 30-min Peptide 1 intravenous (i.v.) infusions, wherein each i.v. infusion corresponded to a dose of 100 μg/kg. • Group 11 received three 8 hours apart 30-min Peptide 1 intravenous (i.v.) infusions, wherein each i.v. infusion corresponded to a dose of 140 μg/kg. • Group 12 received three 8 hours apart 30-min Peptide 1 intravenous (i.v.) infusions, wherein each i.v. infusion corresponded to a dose of 200 μg/kg. • Group 13 received three 8 hours apart 30-min Peptide 1 intravenous (i.v.) infusions, wherein each i.v. infusion corresponded to a dose of 250 μg/kg.
The tested liquid pharmaceutical composition has a pH of 8.2-8.4, and comprises the following: • i) 5 mg/ml of Peptide 1, • ii) 4% (w/w) mannitol, • iii) 1% (w/w) sucrose, • iv) 0.01% (w/w) Polysorbate-80, • v) 10 mM glycyl-glycine, and • vi) sterile water for injection.
Venous whole blood samples were collected from all subjects.
Plasma samples were analyzed for Peptide 1 using validated Liquid chromatography—Tandem Mass spectrometry (LC-MS/MS) methods by Charles River Laboratories (CRL).
Derivation of PK parameters were carried out by PhinC Development using Phoenix WinNonlin® (Version Phoenix 8.1—Certara—Princeton—USA). A non-compartmental analysis (NCA) approach was chosen.
For the calculation of the PK parameters and characteristics the following rules were applied: • All the plasma concentrations validated by the bioanalytical laboratory and provided to the pharmacokinetics were used for the PK analysis. • The theoretical PK blood sampling time points were used. • At time points in the lag-time between time zero and the first concentration equal or above limit of quantification (LOQ), concentrations below the LOQ (BLQ) were set to zero (0). • Concentrations BLQ between 2 concentrations equal or above LOQ were considered as missing. • Trailing concentrations (at time point between time of last measurable concentrations and time of last blood sample) BLQ were not used in calculations. • For 3 infusions regimen, each infusion was considered separately and BLQ rules were applied for each infusion. […] If the pre-dose value was greater than 5% of Cmax, the subject was dropped from all statistical evaluations.
AUC0-tau was only calculated if there were at least 3 concentrations above LOQ. • AUC0-24: The area under the plasma concentration-time curve from time zero (pre-dose) to 24 h was calculated as the sum of the 3 AUC0-tau: AUC0-24=AUC0-tau1+AUC0-tau2+AUC0-tau3. • AUC0-t: The area under the concentration-time curve from time zero (pre-dose) to the time of last quantifiable concentration was calculated using a linear trapezoidal method after each administration (AUC0-t1, AUC0-t2 and AUC0-t3, where AUC0-t1 was AUC0-t corresponded to the AUC from pre-dose to the last measurable quantifiable concentration following the first infusion). AUC0-t was only calculated if there were at least 3 concentrations above LOQ. • ke: The terminal plasma elimination rate-constant was estimated from log-linear regression analysis of the terminal phase of the plasma concentration-time profile. The number of points included in the terminal phase was determined by visual inspection of the semi-log plots of the plasma concentration-time profiles. A minimum of 3 data points, including the last measured data point and excluding Cmax, had to be available for the regression. The correlation coefficient for the goodness of the fit of the regression line through the data points (r^2) had to be 0.8000 or higher, for the value to be considered reliable. […]

AMVSEFLKQAWFIENEEQEYVQTLKSSKGGPGSAVSPYPTFNPSSDV-NH2 [Peptide 1]
AUC (in vivo, 250 ug/kg, 250 μg/kg each, mean, read-out: AUC0-t3): 2430 ng·h/mL | AUC (in vivo, 250 ug/kg, 250 μg/kg each, mean, read-out: AUC0-tau1): 2630 ng·h/mL | AUC (in vivo, 250 ug/kg, 250 μg/kg each, mean, read-out: AUC0-tau2): 2440 ng·h/mL | AUC (in vivo, 250 ug/kg, 250 μg/kg each, mean, read-out: AUC0-tau3): 2480 ng·h/mL | Cmax (in vivo, 250 ug/kg, 250 μg/kg each, mean, read-out: Global Cmax): 2330 ng/mL | Tmax (in vivo, 250 ug/kg, 250 μg/kg each, median, read-out: Global tmax): 8.5 h | Tmax (in vivo, 250 ug/kg, 250 μg/kg each, median, read-out: tmax3): 16.5 h | AUC (in vivo, 50 μg/kg each, GM, read-out: AUC0-t1): 417 ng·h/mL | AUC (in vivo, 50 μg/kg each, GM, read-out: AUC0-tau1): 509 ng·h/mL | AUC (in vivo, 50 μg/kg each, mean, read-out: AUC0-tau2): 517 ng·h/mL | AUC (in vivo, 50 μg/kg each, mean, read-out: AUC0-tau3): 541 ng·h/mL | AUC(0-t) (in vivo, 100 μg/kg each, GM): 3600 ng·h/mL | AUC (in vivo, 100 μg/kg each, GM, read-out: AUC0-t1): 982 ng·h/mL | AUC (in vivo, 100 μg/kg each, GM, read-out: AUC0-t2): 1120 ng·h/mL | AUC (in vivo, 100 μg/kg each, GM, read-out: AUC0-t3): 1090 ng·h/mL | AUC (in vivo, 100 μg/kg each, mean, read-out: AUC0-t1): 993 ng·h/mL | AUC (in vivo, 100 μg/kg each, mean, read-out: AUC0-tau1): 1120 ng·h/mL | AUC (in vivo, 100 μg/kg each, mean, read-out: AUC0-tau2): 1240 ng·h/mL | AUC (in vivo, 100 μg/kg each, mean, read-out: AUC0-tau3): 1260 ng·h/mL | Cmax (in vivo, 100 μg/kg each, mean, read-out: Global Cmax): 1020 ng/mL | half-life (in vivo, 140 μg/kg each, GM): 1.93 h | AUC(0-t) (in vivo, 140 μg/kg each, GM): 5310 ng·h/mL | AUC (in vivo, 140 μg/kg each, GM, read-out: AUC0-t3): 1570 ng·h/mL | AUC (in vivo, 140 μg/kg each, mean, read-out: AUC0-tau3): 1710 ng·h/mL | half-life (in vivo, 200 μg/kg each, GM): ~2 h | AUC (in vivo, 200 μg/kg each, GM, read-out: AUC0-t1): 2490 ng·h/mL | AUC (in vivo, 200 μg/kg each, GM, read-out: AUC0-tau1): 2590 ng·h/mL | AUC (in vivo, 200 μg/kg each, GM, read-out: AUC0-tau2): 2750 ng·h/mL | AUC (in vivo, 200 μg/kg each, GM, read-out: AUC0-tau3): 2710 ng·h/mL | Cmax (in vivo, 200 μg/kg each, mean, read-out: Global Cmax): 2370 ng/mL | half-life (in vivo, 250 μg/kg each, GM): ~2 h | AUC (in vivo, 250 μg/kg each, GM, read-out: AUC0-t1): 2500 ng·h/mL | AUC (in vivo, 250 μg/kg each, GM, read-out: AUC0-t2): 2300 ng·h/mL | AUC (in vivo, 250 μg/kg each, GM, read-out: AUC0-tau3): 2460 ng·h/mL | Tmax (in vivo, all subjects except one (time of the end of infusion), read-out: tmax after each administration): 0.5 h | Cmax (plasma, 50 μg/kg, 50 μg/kg each, GM, read-out: Cmax1): 403 ng/mL | Cmax (plasma, 50 μg/kg, 50 μg/kg each, mean, read-out: Cmax2): 395 ng/mL | Cmax (plasma, 100 μg/kg, 100 μg/kg each, GM, read-out: Cmax1): 877 ng/mL | Cmax (plasma, 100 μg/kg, 100 μg/kg each, GM, read-out: Cmax3): 958 ng/mL | Cmax (plasma, 100 μg/kg, 100 μg/kg each, mean, read-out: Cmax1): 883 ng/mL | Cmax (plasma, 100 ug/kg, 100 μg/kg each, mean, read-out: Cmax2): 977 ng/mL | Cmax (plasma, 140 μg/kg, 140 μg/kg each, GM, read-out: Cmax1): 1310 ng/mL | Cmax (plasma, 140 μg/kg, 140 μg/kg each, GM, read-out: Cmax3): 1220 ng/mL | Cmax (plasma, 140 μg/kg, 140 μg/kg each, mean, read-out: Cmax1): 1340 ng/mL | Cmax (plasma, 200 μg/kg, 200 μg/kg each, GM, read-out: Cmax3): 2130 ng/mL | Cmax (plasma, 200 μg/kg, 200 μg/kg each, mean, read-out: Cmax1): 2190 ng/mL | Cmax (plasma, 200 μg/kg, 200 μg/kg each, mean, read-out: Cmax2): 2050 ng/mL | Cmax (plasma, 250 μg/kg, 250 μg/kg each, GM, read-out: Cmax1): 1890 ng/mL | Cmax (plasma, 250 μg/kg, 250 μg/kg each, GM, read-out: Cmax2): 1800 ng/mL | Cmax (plasma, 250 μg/kg, 250 μg/kg each, GM, read-out: Cmax3): 1780 ng/mL | Cmax (plasma, 250 μg/kg, 250 μg/kg each, mean, read-out: Cmax1): 1960 ng/mL | Cmax2 (50 μg/kg each, GM): 391 ng/mL | Cmax3 (50 μg/kg each, GM): 396 ng/mL | tmax1 (50 μg/kg each, GM): 0.50 h | tmax2 (50 μg/kg each, GM): 8.50 h | Cmax1 (50 μg/kg each, mean): 406 ng/mL | tmax1 (50 μg/kg each, median): 0.50 h | tmax2 (50 μg/kg each, median): 8.50 h | tmax3 (50 μg/kg each, median): 16.50 h | Cmax2 (100 μg/kg each, GM): 971 ng/mL | tmax1 (100 μg/kg each, GM): 0.50 h | tmax2 (100 μg/kg each, GM): 8.50 h | tmax3 (100 μg/kg each, GM): 16.50 h | Cmax3 (100 μg/kg each, mean): 970 ng/mL | tmax1 (100 μg/kg each, median): 0.50 h | tmax2 (100 μg/kg each, median): 8.50 h | Cmax2 (140 μg/kg each, GM): 1360 ng/mL | tmax1 (140 μg/kg each, GM): 0.50 h | tmax2 (140 μg/kg each, GM): 8.47 h | tmax3 (140 μg/kg each, GM): 16.50 h | Cmax2 (140 μg/kg each, mean): 1390 ng/mL | Cmax3 (140 μg/kg each, mean): 1240 ng/mL | tmax1 (140 μg/kg each, median): 0.50 h | tmax2 (140 μg/kg each, median): 8.50 h | AUC0-tau3 (200 μg/kg each, GM): 2774.47 ng·h/mL | Cmax1 (200 μg/kg each, GM): 2170 ng/mL | Cmax2 (200 μg/kg each, GM): 2020 ng/mL | tmax1 (200 μg/kg each, GM): 0.50 h | tmax2 (200 μg/kg each, GM): 8.50 h | tmax3 (200 μg/kg each, GM): 16.47 h | Cmax3 (200 μg/kg each, mean): 2170 ng/mL | tmax1 (200 μg/kg each, median): 0.50 h | tmax2 (200 μg/kg each, median): 8.50 h | tmax2 (250 μg/kg each, GM): 8.54 h | tmax3 (250 μg/kg each, GM): 16.44 h | Cmax2 (250 μg/kg each, mean): 1930 ng/mL | Cmax3 (250 μg/kg each, mean): 1800 ng/mL | tmax1 (250 μg/kg each, median): 0.50 h | tmax2 (250 μg/kg each, median): 8.50 h
